# Measurements from the supplement of paper PMC11208160.
# Assay: recombinant barcode read abundance after kanamycin selection (control-corrected) (log10(CPM+1)); higher = more efficient recombination; sequences stand for … in AGTGCAGAGAAAATCGGCCAGTTTTCTCTGCCTGCAGTCCGCATGCCGT…AGATTTATGCAGCGGACTGCCTTTCTCCCAAAGTGATAAACCGGACAGTATCATGGACCGGTTTTCCCGGTAATCCGTATTTGCAAGGTTGGTTTCACT; site = the 11-nt target
# Procedure, shortened: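 Oligos holding a promoter, target, barcode and the J23119-driven first 104 bases of the bridge RNA were Gibson-cloned into a vector that supplied the other 73 bp plus a T7-inducible recombinase. This library was co-electroporated with a donor plasmid into E. coli. Two replicates went on chloramphenicol/ampicillin LB agar (control) and two on chloramphenicol/ampicillin/kanamycin with 0.1 mM IPTG. Recombination efficiency is read from averaged, control-corrected barcode counts per million at recombinant junctions, reported as log10(CPM+1).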
# 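Also: IS621 recombinase and bridge RNA in Escherichia coli cells.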
row,Sequence,recombinant barcode read abundance (log10)
1,ATAAACCCTTGGGTTCTAACCTGTTGCAT (site AGAATCCCTAT),0.324
2,ATAAACCCTTGGGTTCTAACCTGTTGCAT (site ATAAACCCTAT),2.4
3,ATAACCTCTTGGGTTCTAACCTGTTGCCT (site ATAACCTCTAG),2
4,ATAACCTCTTGGGTTCTAACCTGTTGCCT (site GAGGTGCCTCT),0
5,ATAAGACCTTGGGTTCTAACCTGTTGCCT (site ATAAGACCTAG),2.24
6,ATAAGACCTTGGGTTCTAACCTGTTGCCT (site ATGAGAGCTAG),0.229
7,ATAAGGCCTTGGGTTCTAACCTGTTGCCT (site ATAAAGCCTAG),0.102
8,ATAAGGCCTTGGGTTCTAACCTGTTGCCT (site ATAAGGCCTAG),0.154
9,ATAGAATCTTGGGTTCTAACCTGTTGCTC (site ATAGAATCTGA),1.96
10,ATAGAATCTTGGGTTCTAACCTGTTGCTC (site TGCCTGCCTCT),0.204
11,ATAGACCCTTGGGTTCTAACCTGTTGCCT (site ATAGACCCTAG),2.36
12,ATAGACCCTTGGGTTCTAACCTGTTGCCT (site CTAGACCCTAG),0.918
13,ATAGACCCTTGGGTTCTAACCTGTTGCCT (site GTAGACCCTAG),0.599
14,ATAGACCCTTGGGTTCTAACCTGTTGCCT (site TTAGACCCTAG),1.49
15,ATAGAGTCTTGGGTTCTAACCTGTTGCCT (site ACAGATTCTAG),0.143
16,ATAGAGTCTTGGGTTCTAACCTGTTGCCT (site ATAGAGTCTAG),2.64
17,ATAGGGTCTTGGGTTCTAACCTGTTGCCT (site AAAGGGTCTAG),1.04
18,ATAGGGTCTTGGGTTCTAACCTGTTGCCT (site ACAGGGTCTAG),1.85
19,ATAGGGTCTTGGGTTCTAACCTGTTGCCT (site AGAGGGTCTAG),0.211

row,Sequence,recombinant barcode read abundance (log10)
1,ATAGGGTCTTGGGTTCTAACCTGTTGCCT (site ATAGGGTCTAG),2.5
2,ATAGGTCCTTGGGTTCTAACCTGTTGCCT (site ATAGGTCCTAG),1.58
3,ATAGGTCCTTGGGTTCTAACCTGTTGCCT (site ATCGGTCCTAG),0.202
4,ATAGGTCCTTGGGTTCTAACCTGTTGCCT (site ATGGGTCCTAG),0.189
5,ATAGGTCCTTGGGTTCTAACCTGTTGCCT (site ATTGGTCCTAG),0.309
6,ATATCAACTTGGGTTCTAACCTGTTGCCG (site ATATCAACTCG),0.625
7,ATATCAACTTGGGTTCTAACCTGTTGCCG (site TCTGTGTCTTA),0.0298
8,ATATCTTCTTGGGTTCTAACCTGTTGCCT (site ATATCTTCTAG),1.03
9,ATATCTTCTTGGGTTCTAACCTGTTGCCT (site ATTTCTTCTAG),0.578
10,ATATGATCTTGGGTTCTAACCTGTTGCCT (site ATATGATCTAG),1.43
11,ATATGATCTTGGGTTCTAACCTGTTGCCT (site ATATTATCTTG),0.145
12,ATATGTACTTGGGTTCTAACCTGTTGCCA (site ATATGTACTCG),0.22
13,ATATGTACTTGGGTTCTAACCTGTTGCCA (site ATATGTACTTG),0.733
14,ATATGTCCTTGGGTTCTAACCTGTTGCAA (site ATATGTCCTTT),0.715
15,ATATGTCCTTGGGTTCTAACCTGTTGCAA (site GGTGCATCTAA),0.0198
16,ATCAAAGCTTGGGTTCTAACCTGTTGCCT (site ATCAAAGCTAG),0.154
17,ATCAAAGCTTGGGTTCTAACCTGTTGCCT (site ATCACAGCTAG),0.156
18,ATCAAGCCTTGGGTTCTAACCTGTTGCAG (site ATCAAGCCTCT),1.83
19,ATCAAGCCTTGGGTTCTAACCTGTTGCAG (site TATCCCTCTAG),0.0814
